Activity calls are given as the source filed them.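 The calls were made as follows: active = fitted curve reaches a 40% rise in fluorescent cells at or below the top valid dose; inactive = opposite-direction effect, or the rest.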
Experiment: autofluorescent compounds in non-GFP fibroblasts, dose response, artefact control for X-chromosome reactivation project, imaging, mTEFS fibroblasts, cherry-pick (AID 743396);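 also: raw share of Hoechst-counted cells scored GFP positive without control normalization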
Details: mTEFS fibroblasts autofluorescence, GFP-channel imaging, 3 days; at 19.5 µM (top of the series)

Structure (SMILES) | % fluorescent cells increase
C=CCn1c(O)c(C(C)=NCc2ccc3c(c2)OCO3)c(=O)[nH]c1=O | 0.135% (inactive)
O=c1[nH]c(=O)n(CCC2=CCCCC2)c(O)c1/C=N/Nc1ccccc1 | 0% (inactive)
C[n+]1c(-c2ccccc2)c2cc(N)ccc2c2ccc(N)cc21 | 0.212% (inactive)

Same assay, conditions: mTEFS fibroblasts autofluorescence, GFP-channel imaging, 3 days; at 19.5 µM (top of the series); cells pretreated with 5-aza-dC

Structure (SMILES) | % fluorescent cells increase
COc1ccc(NC(=O)CCc2ccccc2)cc1S(=O)(=O)N1CCCCC1 | 0.183% (inactive)
CC(=O)c1ccc2c(c1)OCCOCCOCCOCCOCCO2 | 0.551% (inactive)
CCc1ccc(NS(=O)(=O)c2ccc3[nH]cc(C(=O)N4CCc5ccccc54)c(=O)c3c2)cc1 | 0% (inactive)
Cc1ccc2[nH]c(C(=O)O)c(NC(=O)[C@@H]3C[C@@H]3c3ccccc3)c2c1 | 0.266% (inactive)
O=C1Nc2ccccc2/C1=C/c1ccccc1Cl | 0% (inactive)
NNC(=O)c1sc(-c2ccccc2)cc1N | 1.36% (inactive)
O=C(NC1=NN(c2ccccc2)CC1)Nc1ccccc1F | -0.002% (inactive)
COc1ccc2c3c([nH]c2c1)[C@H](CO)N(C(=O)C1CCCC1)CC31CN(Cc2nccs2)C1 | 0.113% (inactive)
COc1ccc(-c2noc(-c3cccs3)n2)cc1OC | 0.073% (inactive)
Cn1c(=O)c2[nH]c(-c3ccc(S(=O)(=O)O)cc3)nc2n(C)c1=O | 0.085% (inactive)
CC(C)OC(=O)/C(=C\c1cccnc1)NC(=O)c1ccccc1 | 0.013% (inactive)
ClC1CCCCC1n1nnc2ccccc21 (stereo not given) | 0.006% (inactive)
COc1ccc(OC)c(NC(=O)Nc2ccc3[nH]ccc3c2)c1 | 0% (inactive)
NNC(=O)c1sc(-c2ccc(Cl)cc2)cc1N | 0.125% (inactive)
S=C(SSC(=S)N1CCOCC1)N1CCOCC1 | 0% (inactive)
O=c1[nH]nc(SCCS(=O)(=O)c2ccc(F)cc2)n1-c1ccccc1C(F)(F)F | -0.004% (inactive)
CCN(CC)c1ccc(N=Cc2ccc([N+](=O)[O-])o2)cc1 | 0.026% (inactive)
CCCCOc1nc2ccccc2nc1NS(=O)(=O)c1ccc(F)cc1 | 0% (inactive)
Nc1c(-c2ccccc2)c(CN2CCOCC2)nn1-c1ccc(C(=O)O)cc1 | 0% (inactive)
CC(C)C#Cc1ccc([C@@H]2[C@@H](CO)N3C(=O)CN(C(=O)c4ccc5c(c4)OCO5)C[C@H]23)cc1 | -0.166% (inactive)
COc1ccc2c3c(n(C)c2c1)[C@@H](CO)N(C(=O)NC(C)C)CC31CN(C(C)=O)C1 | -0.138% (inactive)

Structure (SMILES) | % fluorescent cells increase
Nc1cc2c3c(cccc3c1)C(=O)N(CCN1CCCC1)C2=O | -0.003% (inactive)
CC(=O)Oc1ccc2c(=O)c(-c3ccccc3)coc2c1 | 0.02% (inactive)
CC(=O)c1ccc(C(=O)Nc2sc3c(c2C(N)=O)CCN(Cc2ccccc2)C3)cc1 | 8.52% (inactive)
Nc1nc(Nc2ccc(Cl)cc2)c(NC=O)c(=O)[nH]1 | 18.8% (inactive)
CCOC(=O)c1sc(Nc2ccc(Br)cc2)nc1C | 1.37% (inactive)
O=[N+]([O-])c1ccc(Sc2nnnn2-c2ccccc2)nc1 | -0.007% (inactive)
COC(=O)c1cnn(-c2ccccc2)c1N | 0.008% (inactive)
O=C(O)/C=C/C(=O)Nc1ccc(-n2nccc2C(F)(F)F)cc1 | 1.85% (inactive)
Cc1ccc(C(=O)NCc2ccccn2)cc1NC1=NC2CS(=O)(=O)CC2S1 (stereo not given) | 0.061% (inactive)
Cc1cc2c(NC(=O)Nc3ccc(C(C)(C)C)cc3)cccc2nn1 | 0.237% (inactive)
COc1cc(/C=C/c2ccc3cccc(O)c3n2)c(Br)cc1O | 0% (inactive)
C[C@H]1CCCCO[C@@H](CN(C)C(=O)Nc2ccc(C(F)(F)F)cc2)[C@@H](C)CN([C@@H](C)CO)C(=O)c2cc(NC(=O)CCC(F)(F)F)ccc2O1 | -0.166% (inactive)
O=C(NNC(=O)c1cc2ccccc2o1)c1ccc(Cl)cc1 | 0.148% (inactive)
NNC(=O)/C(=C\c1ccc(Br)cc1)NC(=O)c1cccs1 | 0.233% (inactive)
Clc1ccc(-c2nc(-c3ccncc3)no2)c(Cl)c1 | 0% (inactive)
CCN(CC)S(=O)(=O)c1ccc(Cl)c(NC(=O)COC(=O)c2c(C)noc2C)c1 | 0.009% (inactive)
C[C@@H]1CN([C@@H](C)CO)C(=O)c2cc(NS(C)(=O)=O)ccc2O[C@@H](C)CCCCO[C@@H]1CN(C)Cc1ccccc1 | 0.259% (inactive)
Nc1nc(C2CCOCC2)cs1 | 0.017% (inactive)
COc1ccccc1NC(=S)N(CCCN1CCOCC1)Cc1cccs1 | -0.007% (inactive)
Cc1ccc(S(=O)(=O)N2CC3(O)CN(C(=O)OC(C)C)N(C(=O)OC(C)C)CC3(OC(=O)NCc3ccccc3)C2)cc1 (stereo not given) | 0.003% (inactive)
COc1ccc(NC(=O)Nc2ccc3c(c2)CC(=O)N([C@H](C)CO)C[C@H](C)[C@@H](CN(C)S(=O)(=O)c2ccc(F)cc2)O3)cc1 | 2.89% (inactive)

Structure (SMILES) | % fluorescent cells increase
COC(C(=O)NCc1ccc(C)cc1)c1ccccc1 (stereo not given) | 0% (inactive)
CCOc1ccc(CCN2C(=S)N([C@@H](Cc3ccccc3)CN3CCC[C@@H]3CN3C(=S)NC[C@@H]3CC(C)C)C[C@@H]2Cc2ccccc2)cc1 | 0.019% (inactive)
Cc1ccc(S(=O)(=O)N(C)C[C@H]2Oc3ccc(NC(=O)Nc4ccccc4)cc3CC(=O)N([C@H](C)CO)C[C@@H]2C)cc1 | 0% (inactive)
CCCn1c(SCC(=O)NCc2ccc(C)cc2)n[nH]c1=O | -0.007% (inactive)
N=c1ccn2c(n1)OC1C(O)C(CO)OC12 (stereo not given) | -0.006% (inactive)
NS(=O)(=O)c1cccc(NC(=O)COC(=O)Cc2ccc(S(=O)(=O)N3CCOCC3)s2)c1 | 0% (inactive)
O=C(c1ccccc1Cl)N1CCSCCS1(=O)=O | 0% (inactive)
COc1ccc(-n2c(=O)n(Cc3ccccc3)c(=O)c3[nH]cnc32)cc1 | 0.008% (inactive)
N/C(=N\c1nc(CSc2nc3ccccc3s2)cc(=O)[nH]1)Nc1ccc(F)cc1 | 2.21% (inactive)
CC(C)c1cc(C(=O)N/N=C/c2cccnc2)cs1 | -0.004% (inactive)
COC(=O)CCN1CCC(c2cc(-c3cccc(C(F)(F)F)c3)n[nH]2)CC1 | 0% (inactive)
COc1ccc(COc2ccccc2C(=O)NCc2ccccc2)cc1F | 0% (inactive)
COc1ccc2c3c(n(C)c2c1)[C@@H](CO)N(C)CC31CN(C(=O)NC(C)C)C1 | -0.14% (inactive)
COc1ccc2c3c([nH]c2c1)[C@H](CO)N(C(=O)Nc1ccc(F)cc1)CC31CN(CC2CC2)C1 | 0.116% (inactive)
CCOC(=O)Cc1csc(NC(=O)Nc2ccc(F)cc2)n1 | 0% (inactive)
O=C(CCl)N=c1sccn1Cc1ccc(Cl)cc1Cl | 0% (inactive)
CCN1CCN(c2cc(C)c3cc(NC(=O)c4cccs4)ccc3n2)CC1 | 0.257% (inactive)
Cc1ccsc1/C=N/n1c(-c2cc(-c3ccccc3)n[nH]2)n[nH]c1=S | 0% (inactive)
CC(=O)OCCNc1cc(Sc2nc3ccccc3[nH]2)c2nonc2c1[N+](=O)[O-] | 9.92% (inactive)
CCOC(=O)C1CCN(C(=O)c2ccc(NS(=O)(=O)c3ccc(F)cc3C)cc2)CC1 | 0% (inactive)
CC(OCCN(C)C)C(=O)C12CC3CC(CC(C3)C1)C2 (stereo not given) | 0.039% (inactive)

Structure (SMILES) | % fluorescent cells increase
CN(Cc1cccs1)C(=O)Cc1c[nH]c2ccccc12 | 0.005% (inactive)
COc1ccc(OCCN2CCC(C(=O)NC(c3ccc(C)cc3)c3ccccn3)CC2)cc1 (stereo not given) | 0.021% (inactive)
COc1ccc(/C=c2/sc3nc(-c4ccccc4)c(-c4ccccc4)n3c2=O)cc1 | 0.085% (inactive)
CCOC(=O)[C@]12CCC=C1N(Cc1ccccc1)C(=O)[C@H](CC(=O)N1CCSCC1)C2 | 0.038% (inactive)
Cc1cc(NC(=O)c2c(-c3c(Cl)cccc3Cl)noc2C)n(C)n1 | 0.012% (inactive)
O=C(NCCOc1ccccc1)c1cc([N+](=O)[O-])ccc1N1CCOCC1 | 0.343% (inactive)
COc1ccc(CCCc2nc3ccccc3[nH]2)cc1 | -0.011% (inactive)
CN(C)C=NC(=O)c1cc(C(=O)c2ccc(Cl)cc2Cl)c[nH]1 | 0.032% (inactive)
CS(=O)(=O)c1ccc(S(=O)CC(=O)OCc2ccccc2)c([N+](=O)[O-])c1 (stereo not given) | 0% (inactive)
Nc1ccccc1Nc1cc(-c2ccccc2)[nH]n1 | 2.52% (inactive)
COC(=O)C(C(C)C)N1CCc2c(C)nc3c(C#N)cnn3c21 (stereo not given) | 0.064% (inactive)
O=C(c1ccc(S(=O)(=O)c2ccc(Cl)cc2)cc1)N1CCOCC1 | 0.948% (inactive)
O=C(CNC(=O)c1ccccc1F)OCc1nc2ccccc2s1 | 0.037% (inactive)
CO[C@H]1CN(C)C(=O)c2ccc(NC(=O)C3CCCCC3)cc2OC[C@H](C)NC[C@@H]1C | 0.009% (inactive)
Cc1cccn2c(=O)c3cc(C(=O)NCc4ccc(F)cc4)c(=N)n(CCCN4CCOCC4)c3nc12 | 0% (inactive)
COC(=O)Nc1ccc(S(=O)(=O)N2CCCC(C(=O)N3CCN(C)CC3)C2)cc1 (stereo not given) | 0% (inactive)
CN1c2ccc(-c3ccc(C#N)cc3)cc2[C@@H]2[C@@H](CCN2C(=O)NC2CCCCC2)[C@H]1CO | 0.092% (inactive)
C=CCNC(=O)N[C@@H](Cc1ccccc1)C(=O)OC | 1.04% (inactive)

Same assay, conditions: mTEFS fibroblasts autofluorescence, GFP-channel imaging, 3 days; at 21 µM (top of the series); cells pretreated with 5-aza-dC

Structure (SMILES) | % fluorescent cells increase
COc1ccc(S(=O)(=O)N(C)C[C@@H]2OCc3cn(nn3)CCCC(=O)N([C@@H](C)CO)C[C@@H]2C)cc1 | 0.036% (inactive)
